How the values were obtained:
[1] = tested on: canonical Wnt-β-catenin cellular messaging system (16xTCF-TK-FireFly-Luci reporter, Wnt3a and Dkk1 co-transfected U2OS cells); test: Functional Dkk1-LRP5-TCF-Luciferase Assay in U2OS Cells (table columns: A=MAX FOLD Induction/DMSO CONTROL; B=fold induction @ 2.0 uM; C=fold induction @ 20.0 uM); assay type: cell-based, Human; conditions: maximum fold induction over DMSO control
Procedure, shortened: (§1)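 U2OS cells co-transfected with 16×TCF-TK-firefly luciferase, TK-Renilla control, Wnt3a and Dkk1, then frozen; thawed cells (~5,000/well, ~5% FBS, phenol red-free RPMI) incubated ~20 h at 37° C. with compound (0.25% DMSO). Firefly luminescence (Bright-Glo) normalized to DMSO mean as fold induction.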

[2] = as above; assay type: cell-based, Human; conditions: Homo sapiens, U2OS; for fold induction at 2 µM: 2.0 uM compound; for fold induction at 20 µM: 20.0 uM compound
Procedure, shortened: as §1

A = MAX FOLD Induction/DMSO CONTROL [1] | Structure (SMILES) | fold induction at 2 µM [2] | fold induction at 20 µM [2]
1.160 | Clc1ccc(-c2nc3cc(-c4ccc5ccccc5c4)cnc3n2C2CCNCC2)cc1 [2-(4-chlorophenyl)-6-(2-naphthyl)-3-piperidin-4-yl-3H-imidazo[4,5-b]pyridine] | – | –
– | Fc1cccc(-c2nc3c(-c4ccc5ccccc5c4)ccnc3n2C2CCNCC2)c1F [2-(2,3-difluorophenyl)-7-(2-naphthyl)-3-piperidin-4-yl-3H-imidazo[4,5-b]pyridine] | 1.9 | –
– | Cc1ccc(-c2nc3cc(-c4ccc5ccccc5c4)cnc3n2C2CCNCC2)o1 [2-(5-methyl-2-furyl)-6-(2-naphthyl)-3-piperidin-4-yl-3H-imidazo[4,5-b]pyridine] | 1.23 | –
– | CC(=O)N1CCC(n2c(=O)n(C)c3c(-c4ccc5ccccc5c4)ccnc32)CC1 [3-(1-acetylpiperidin-4-yl)-1-methyl-7-(2-naphthyl)-1,3-dihydro-2H-imidazo[4,5-b]pyridin-2-one] | 1.09 | 0.51
– | COC(=O)N1CCC(n2cnc3c(-c4ccc5ccccc5c4)ccnc32)CC1 [methyl 4-[7-(2-naphthyl)-3H-imidazo[4,5-b]pyridin-3-yl]piperidine-1-carboxylate] | 1.08 | 1.02
– | O=[N+]([O-])c1cccc(-c2nc3cc(-c4ccc5ccccc5c4)cnc3n2C2CCNCC2)c1 [6-(2-naphthyl)-2-(3-nitrophenyl)-3-piperidin-4-yl-3H-imidazo[4,5-b]pyridine] | 1.3 | –
– | Cc1ccc(-c2nc3cc(-c4ccc5ccccc5c4)cnc3n2C2CCNCC2)c(C)c1 [2-(2,4-dimethylphenyl)-6-(2-naphthyl)-3-piperidin-4-yl-3H-imidazo[4,5-b]pyridine] | 1.31 | –
– | c1csc(-c2nc3cc(-c4ccc5ccccc5c4)cnc3n2C2CCNCC2)c1 [6-(2-naphthyl)-3-piperidin-4-yl-2-(2-thienyl)-3H-imidazo[4,5-b]pyridine] | 1.04 | –
– | Clc1ccc(-c2nc3cc(-c4ccc5ccccc5c4)cnc3n2C2CCNCC2)c(Cl)c1 [2-(2,4-dichlorophenyl)-6-(2-naphthyl)-3-piperidin-4-yl-3H-imidazo[4,5-b]pyridine] | 1.04 | –
– | c1ccc2cc(-c3ccnc4c3nc(C3CCCCC3)n4C3CCNCC3)ccc2c1 [2-cyclohexyl-7-(2-naphthyl)-3-piperidin-4-yl-3H-imidazo[4,5-b]pyridine] | 1.88 | –
– | Clc1ccc(-c2nc3c(-c4ccc5ccccc5c4)ccnc3n2C2CCNCC2)c(Cl)c1 [2-(2,4-dichlorophenyl)-7-(2-naphthyl)-3-piperidin-4-yl-3H-imidazo[4,5-b]pyridine] | 1.1 | –
– | c1ccc2cc(-c3cnc4c(c3)nc(-c3cc5ccccc5s3)n4C3CCNCC3)ccc2c1 [2-(1-benzothien-2-yl)-6-(2-naphthyl)-3-piperidin-4-yl-3H-imidazo[4,5-b]pyridine] | 0.92 | –
– | Cn1cc(-c2nc3c(-c4ccc5ccccc5c4)ccnc3n2C2CCNCC2)c2ccccc21 [2-(1-methyl-1H-indol-3-yl)-7-(2-naphthyl)-3-piperidin-4-yl-3H-imidazo[4,5-b]pyridine] | 1.23 | –
– | c1ccc(-c2nc3c(-c4ccc5ccccc5c4)ccnc3n2C2CCNCC2)nc1 [7-(2-naphthyl)-3-piperidin-4-yl-2-pyridin-2-yl-3H-imidazo[4,5-b]pyridine] | 1.12 | 0.02
– | O=C(N1CCOCC1)N1CCC(n2cnc3c(-c4ccc5ccccc5c4)ccnc32)CC1 [3-[1-(morpholin-4-ylcarbonyl)piperidin-4-yl]-7-(2-naphthyl)-3H-imidazo[4,5-b]pyridine] | 1.08 | 1.25
– | Cn1c(-c2nc3c(-c4ccc5ccccc5c4)ccnc3n2C2CCNCC2)cc2ccccc21 [2-(1-methyl-1H-indol-2-yl)-7-(2-naphthyl)-3-piperidin-4-yl-3H-imidazo[4,5-b]pyridine] | 1.17 | –
